The values that follow come from EP0505047B1, “Rearranged taxol compounds and method of using in testing of in vivo activity” (VIRGINIA TECH INTELLECTUAL PROPERTIES, INC., priority 1991, dated 1992).

In brackets after ≈: the same amount, converted by molar mass.

For assay [1], the system named is KB cells. Kind of assay: KB cell culture assay. The class given is cell-based. The settings on record: ED₅₀ of less than 4.0 indicates activity; for EC50: Homo sapiens, read-out: ED⁵⁰ (µg/ml) cell culture. On the procedure:
Taxol (1), the Meerwein product (4), the acetyl chloride product (7), and A-nor-taxol (10) were tested in KB cell culture assays. […]

In assay [2] the test system is tubulin. Kind of assay: tubulin depolymerization assay. The class given is biochemical. The settings on record: for IC50: in vitro, read-out: ID₅₀(µM) in tubulin depolymerization assay. The text has this:
Taxol (1), the Meerwein product (4), the acetyl chloride product (7), and A-Nor-Taxol (10) were also subjected to tubulin depolymerization assays with the results presented in Table XVI below.

As to `C=C(C)C12CC(OC(=O)C(O)C(NC(=O)c3ccccc3)c3ccccc3)C(C)=C1C(OC(C)=O)C(=O)C1(C)C(O)CC3OCC3(OC(C)=O)C1C2OC(=O)c1ccccc1` (stereo not drawn) [A-Nortaxol (10), A-Nortaxol], the EC50 in assay [1] is 2 µg/mL (≈ 2.39 µM). Moreover, the IC50 in assay [2] was 0.9 µM. The “activity in the tubulin depolymerization assay compared with taxol” value in assay [2] (result in words) was “very similar to taxol”.

For the compound `CC(=O)O[C@H]1C(=O)[C@@]2(C)[C@H]([C@H](OC(=O)c3ccccc3)[C@]3(O)C[C@H](OC(=O)[C@H](O)[C@@H](NC(=O)c4ccccc4)c4ccccc4)C(C)=C1C3(C)C)[C@]1(OC(C)=O)CO[C@@H]1C[C@@H]2O` [Taxol (1), taxol], the EC50 in assay [1] came to 1e-05 µg/mL (≈ 1.17e-05 µM). For the same compound, the IC50 in assay [2] was determined as 0.3 µM.

As to “acetylated A-Nor-D-seco-taxol [Acetyl Chloride product (7)]”, in assay [1], the “ED⁵⁰ (µg/ml) cell culture” value was 2.5 µg/mL.
